This note sets out measurements from patent US6924278B2, “Aroyl-piperazine derivatives, their preparation and their use as tachykinin antagonists” (Fujisawa Pharmaceutical Co., Ltd., priority 1997, dated 2005).

The term melting point denotes the temperature of the solid-liquid transition. As usually defined, the inhibition is the percentage by which the read-out fell short of the control.

Molecules are shown by their SMILES. Some results are limits rather than exact numbers.

One data set deals with emesis in the ferret. In words: Emesis in the ferret (copper sulfate-induced retching and vomiting). The class given is in vivo. Particulars: dose of 1.0 mg/kg i.v., 30 min before intra-gastric copper sulfate (40 mg/kg/ml), observed for the next 30 min. The protocol: Individually housed adult male ferrets (Marshall Farms, 1.4 to 2.2 kg) were given an i.v. injection of a solution contatining a test compound. 30 Min later the emetic responses (retching and vomiting) were induced by administration of intra-gastric copper sulfate (40 mg/kg/ml) and observed for the next 30 min. The timing and number of retches and vomits observed were recorded for each animal. An individual animal was tested with at least 10 days between experiments.

The next data set has as its target T1, h-NK1 receptors (Homo sapiens, UniProt P25103).
T1 construct: expressed in transfected cells; host or cells: CHO cells (permanent expression), crude cell membranes
In words: Evaluation of NK1 antagonist transport efficiency to the central nervous system using a h-NK1 receptor binding assay (brain extract after i.v. dosing of rats). Particulars: 5 min; compound extracted from brain of male SD rats 5 min after i.v. injection at the dose of 1 mg/kg; CHO cell membranes expressing h-NK1; read-out: inhibition rate of 125I-BH-Substance P binding to h-NK1 receptors. On the procedure: A. Evaluation of NK1 Antagonist Transport Efficiency to the Cental Nervous System using a h-NK1 Receptor Binding Assay
(1) Administration of Test Compound and Extraction of the Compound from Brain
Male SD rats were given an i.v. injection of a solution containing a test compound (1 mg/kg). 5 Min later the animals were anesthetized by ether, bled and perfused through the aorta ascendens with 20 ml of saline. The brain was rapidly removed, weighed and homogenized in 4 vol. ice-cold distilled water by using Polytoron (KINEMATICA). To extract the test compound, 500 μl of the homogenate, 100 μl of methanol, 500 μl of 0.1 N NaOH and 4 ml of ethyl acetate were mixed by shaking for 10 min at room temperature. The organic phase (2.5 ml) was recovered by centrifugation at 3,000 rpm for 10 min, dried and dissolved in dimethyl sulfoxide.
(2) h-NK1 Receptor Binding Assay
(a) Crude CHO Cell Membrane Preparation
CHO cells permanently expressing h-NK1 receptors were harvested and homogenized with a Dounce homogenizer at 4° C. in a buffer (0.25 M sucrose, 25 mM Tris-HCl (pH 7.4), 10 mM MgCl2, 1 mM EDTA, 5 μg/ml p-APMSF). The homogenate was centrifuged (500×g, 10 min), and the pellet was resuspended in the same buffer, homogenized, and centrifuged. The two supernatants were combined and centrifuged (100,000×g, 1 hour). The crude cell membranes thus isolated were resuspended in a buffer (25 mM Tris-HCl (pH 7.4), 10 mM MgCl2, 1 mM. EDTA, 5 μg/ml p-APMSF) and stored at −80° C. until use.
(b) ^125I-BH-Substance P Binding to the Prepared Membrane
Cell membranes (6 μg/ml) were incubated with ^125I-BH-Substance P (0.1 nM) with or without the extracted compounds in 0.25 ml of a medium (50 mM Tris-HCl (pH 7.4), 5 mM MnCl2, 20 μg/ml chymostatin, 40 μg/ml bacitracin, 4 μg/ml leupeptin, 5 μg/ml p-APMSF, 200 μg/ml BSA) at 22° C. for 90 min. At the end of the incubation period, the contents were quickly filtered through a Blue Mat 11740 filter (pretreated with 0.1% polyethylenimine for 3 hours prior to use) by using SKATRON Cell Harvester. The filter was then washed with a washing buffer (50 mM Tris-HCl (pH 7.4), 5 mM MnCl2). The radioactivity was counted by using an auto gamma counter (Packard RIASTAR 5420A). All data presented are specific binding defined as that displaceable by 3 μM unlabeled Substance P.

T1 sequence (P25103 whole entry): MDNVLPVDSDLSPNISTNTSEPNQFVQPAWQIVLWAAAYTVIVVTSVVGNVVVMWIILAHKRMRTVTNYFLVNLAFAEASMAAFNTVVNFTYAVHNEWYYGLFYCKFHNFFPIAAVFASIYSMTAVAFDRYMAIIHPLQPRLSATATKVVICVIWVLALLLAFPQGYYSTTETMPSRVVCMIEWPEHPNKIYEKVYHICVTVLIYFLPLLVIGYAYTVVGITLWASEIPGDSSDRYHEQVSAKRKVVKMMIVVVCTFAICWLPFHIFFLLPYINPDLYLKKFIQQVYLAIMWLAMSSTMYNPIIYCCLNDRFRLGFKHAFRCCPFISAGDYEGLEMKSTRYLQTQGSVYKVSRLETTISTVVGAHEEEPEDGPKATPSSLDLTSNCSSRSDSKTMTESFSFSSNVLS

As for `Cl.Cl.O=C(c1cc(C(F)(F)F)cc(C(F)(F)F)c1)N1CCN(CCCc2ccccn2)C[C@H]1Cc1c[nH]c2ccccc12` [4-(2), (2R)-1-[3,5-Bis(trifluoromethyl)benzoyl]-2-[(1H-indol-3-yl)methyl]-4-[3-(2-pyridyl)propyl]piperazine dihydrochloride], the melting point was in the range of 80 to 100 °C. Further, in the data set with emesis in the ferret, the “inhibition rate of emesis in the ferret” value is 100%.

Regarding `CNc1cc(C(=O)N2CCN(CC#CCN3CCOCC3(C)C)C[C@H]2Cc2ccc(C)c(C)c2)cc(C(F)(F)F)c1.Cl.Cl` [90-(4), (2R)-2-(3,4-Dimethylbenzyl)-4-[4-(3,3-dimethylmorpholino)-2-butynyl]-1-[3-(methylamino)-5-(trifluoromethyl)benzoyl]piperazine dihydrochloride], the melting point lay within 195 to 205 °C. The inhibition at 1 mg/kg at h-NK1 receptors was greater than 80%.

Take `Cc1ccc(C[C@@H]2CN(CC#CCN3CCOCC3(C)C)CCN2C(=O)c2cc([N+](=O)[O-])cc(C(F)(F)F)c2)cc1C.Cl.Cl` [90-(6), (2R)-2-(3,4-Dimethylbenzyl)-4-[4-(3,3-dimethylmorpholino)-2-butynyl]-1-[3-nitro-5-(trifluoromethyl)benzoyl]piperazine dihydrochloride]: the melting point was in the range of 157 to 200 °C. Besides, the inhibition at 1 mg/kg on h-NK1 receptors was greater than 80%.

In turn, `Cl.Cl.O=C(c1cc(C(F)(F)F)cc(C(F)(F)F)c1)N1CCN(C/C=C\c2cccnc2)C[C@H]1Cc1c[nH]c2ccccc12` [Example 5-(2), (2R)-1-[3,5-Bis(trifluoromethyl)benzoyl]-2-[(1H-indol-3-yl)methyl]-4-[(Z)-3-(3-pyridyl)-2-propenyl]piperazine dihydrochloride] returned a melting point of 165 to 177 °C. Also, on h-NK1 receptors, the inhibition at 1 mg/kg is greater than 80%.

Take `Cc1ccc(C[C@@H]2CN(CC#CCN3CCOCC3)CCN2C(=O)c2cc(Cl)cc(Cl)c2)cc1C.Cl.Cl` [Example 15, (2R)-1-(3,5-dichlorobenzoyl)-2-(3,4-dimethylbenzyl)-4-(4-morpholino-2-butynyl)piperazine dihydrochloride]: the melting point was 175 °C (dec.). Also, the inhibition at 1 mg/kg on h-NK1 receptors was greater than 80%.

With `Cc1ccc(C[C@@H]2CN(CCCNN3CCOCC3)CCN2C(=O)c2cc(Cl)cc(Cl)c2)cc1C.Cl.Cl` [Example 17, (2R)-1-(3,5-dichlorobenzoyl)-2-(3,4-dimethylbenzyl)-4-(N-morpholino-3-aminopropyl)piperazine dihydrochloride], the melting point is 71 °C (dec.). Further, the inhibition at 1 mg/kg at h-NK1 receptors was greater than 80%.

For `Cc1ccc(C[C@@H]2CN(CCCc3cn(C)cn3)CCN2C(=O)c2cc(C(F)(F)F)cc(C(F)(F)F)c2)cc1C.Cl.Cl` [Example 18, (2R)-1-[3,5-bis(trifluoromethyl)benzoyl]-2-(3,4-dimethylbenzyl)-4-[3-(1-methyl-1H-imidazol-4-yl)propyl]piperazine dihydrochloride], the melting point is 91 °C (dec.). The inhibition at 1 mg/kg at h-NK1 receptors is greater than 80%.

As for `Cc1ccc(C[C@@H]2CN(CCCN(C=O)N3CCOCC3)CCN2C(=O)c2cc(C(F)(F)F)cc(C(F)(F)F)c2)cc1C.Cl` [Example 26], the “inhibition rate of emesis in the ferret” value with emesis in the ferret amounted to 100%.

`Cc1ccc(C[C@@H]2CN(Cc3cnn(CCN4CCOCC4)c3)CCN2C(=O)c2cc(C(F)(F)F)cc(C(F)(F)F)c2)cc1C.Cl.Cl` [Example 29, (2R)-1-[3,5-bis(trifluoromethyl)benzoyl]-2-(3,4-dimethylbenzyl)-4-[[1-(2-morpholinoethyl)-1H-pyrazol-4-yl]methyl]piperazine dihydrochloride] registered a melting point of 115 to 116 °C. Besides, on h-NK1 receptors, the inhibition at 1 mg/kg is greater than 80%. In the data set with emesis in the ferret, the “inhibition rate of emesis in the ferret” value is 100%.

Consider `CN(CCN1CCN(C(=O)c2cc(C(F)(F)F)cc(C(F)(F)F)c2)[C@H](Cc2ccc3ccccc3c2)C1)Cc1cccnc1.Cl.Cl` [Example 40], for which the “inhibition rate of emesis in the ferret” value in the data set on emesis in the ferret was determined as 100%.

As to `CN(CCN1CCN(C(=O)c2cc(C(F)(F)F)cc(C(F)(F)F)c2)[C@H](Cc2c[nH]c3ccccc23)C1)Cc1cccnc1.Cl.Cl` [Example 41, (2R)-1-[3,5-Bis(trifluoromethyl)benzoyl]-2-[(1H-indol-3-yl)methyl]-4-[2-[N-methyl-N-(3-pyridylmethyl)amino]ethyl]piperazine dihydrochloride], the “inhibition rate of emesis in the ferret” value with emesis in the ferret turned out to be 100%.

Regarding `Cc1ccc(C[C@@H]2CN(C/C=C/[C@@H]3COCCN3)CCN2C(=O)c2cc(C(F)(F)F)cc(C(F)(F)F)c2)cc1C.Cl.Cl` [Example 45, (2R)-1-[3,5-bis(trifluoromethyl)benzoyl]-2-(3,4-dimethylbenzyl)-4-[(2E)-3-[(3R)-3-morpholinyl]-2-propenyl]piperazine dihydrochloride], the melting point is 225 to 232 °C. The inhibition at 1 mg/kg at h-NK1 receptors was greater than 80%.

The compound `Cc1ccc(C[C@@H]2CN(CC#C[C@@H]3COCCN3)CCN2C(=O)c2cc(C(F)(F)F)cc(C(F)(F)F)c2)cc1C.Cl.Cl` [Example 68, (2R)-1-[3,5-bis(trifluoromethyl)benzoyl]-2-(3,4-dimethylbenzyl)-4-[3-[(3R)-morpholin-3-yl]-2-propynyl]piperazine dihydrochloride] yielded a melting point of 190 to 191 °C. For the same compound, on h-NK1 receptors, the inhibition at 1 mg/kg was greater than 80%.
